Experimental data reported in patent US20170051149A1, “AZOARYLS AS REVERSIBLY MODULATABLE TUBULIN INHIBITORS” (ECOLE NORMALE SUPERIEURE DE LYON, priority 2014, published 2017).

What was measured:
HeLa cells [1] = test: MTT assay; assay type: cell-based; conditions: 50 nM, 48 h
Description: The cytotoxic properties of I.1 were subsequently confirmed with another method, using the quantification of mitochondrial dehydrogenase activity of cells as determined by the level of 3-(4.5-dimethylthiazol-2-yl)-2.5-diphenyl tetrazolium bromide (MTT) reduction to its purple formazan, according to standard protocol^[30]. […] Cells were kept in the dark, or exposed to a pulsed toxic regime of 390 nm only, or exposed to a strong rescue protocol with pulses of 390 nm then 505 nm light. Pulses of light were applied every 30 s; 390 nm light pulses lasted 150 ms every 30 s, while the 505 nm light pulses were applied for 500 ms; in the strong rescue regime, the 505 nm pulse was synchronised so that it began immediately after the 390 nm pulse ended.
Cellular viability was measured 48 h later, namely, cells were incubated with MTT for three hours and after dissolution of the formazan crystals with DMSO, absorbance at 550 nm was measured using a FLUOstar Omega microplate reader. Results are shown in Table 5 below and are expressed as a fold growth relative to the control growth of the cells treated only with a co-solvent (0.5% MeCN) and represent mean and standard deviation of quadruplicates of the optical density values, which are proportional to the cell number.

HEK-293T cells = test: MTT assay, light-dependent cell proliferation; assay type: cell-based; conditions: 72 h
HEK-293 = test: cell cycle analysis by PI flow cytometry; assay type: cell-based; conditions: 15 nM, 30 h
Experimental: (§1) The effect of compound I.1 on cell cycle progression was assessed by flow cytometry. Briefly, following the application of compound I.1 and exposure to the indicated light regime, cells were harvested on ice and incubated in a hypotonic buffer [0.1% sodium citrate, 0.1% Triton X-100 and 50 μg/mL propidium iodide (PI)] for 30 min at 4° C. Following the PI staining cells were analysed by flow cytometry using FACSCalibur flow cytometer (Becton Dickinson, Heidelberg, Germany) and Cell Quest Pro Software (Becton Dickinson). Subsequently the cell cycle analysis was performed using the FlowJo software (Tree Star Inc., Ashland, Oreg., USA).

HeLa [2] = test: cell cycle analysis by PI flow cytometry; assay type: cell-based; conditions: 15 nM, 30 h
Experimental: as §1

MDA-MB-231 cells = test: cell cycle analysis by PI flow cytometry; assay type: cell-based; conditions: 15 nM, 30 h
Experimental: as §1

HeLa [3] = test: membrane permeability, PI uptake in nonpermeabilized cells; assay type: cell-based; conditions: 15 nM, 70 h
Experimental: (§2) Membrane integrity was assessed as a marker of cellular viability, via examining the uptake of propidium iodide (PI) in nonpermeabilized cells according to a standard protocol. Namely, cells were harvested and incubated with 5 μg/mL PI in PBS containing 2% FCS (foetal calf serum), and immediately analysed by flow cytometry using a FACSCalibur flow cytometer.

Jurkat cells [4] = test: as above; assay type: cell-based; conditions: 15 nM, 48 h
Experimental: as §2

MDA-MB-231 = test: as above; assay type: cell-based; conditions: 15 nM, 70 h
Experimental: as §2

HeLa cells [5] = test: nuclear fragmentation (subG1, Nicoletti), induction of apoptosis; assay type: cell-based; conditions: 15 nM, 30 h
Experimental: (§3) Different cell types, including MDA-MB-231, Jurkat, HeLa and HepG2 cells, were treated with indicated concentrations of compound I.1 and exposed to a 390 nm toxic regime, a rescue regime with both 390 nm and 515 nm light, or kept in the dark. Following the treatment, cells were stained with PI and the percentage of cells containing a hypodiploid amount of DNA (subG1 phase of cell cycle), was determined. Briefly, prior to analysis, cells were harvested on ice and incubated in a hypotonic buffer [0.1% sodium citrate, 0.1% Triton X-100 and 50 μg/mL propidium iodide (PI)] for 30 min at 4° C. Following the PI staining cells were analysed by flow cytometry using FACSCalibur flow cytometer (Becton Dickinson, Heidelberg, Germany) and Cell Quest Pro Software (Becton Dickinson).

Jurkat cells [6] = test: as above; assay type: cell-based; conditions: 48 h
Experimental: as §3

tubulin = conditions: trans isomer; read-out: in vitro IC50, tubulin polymerisation; cited from earlier work

COc1ccc(/C=C\c2cc(OC)c(OC)c(OC)c2)cc1OP(=O)(O)O [CA4P, fosbretabulin, reference compound]
mean fold growth (HeLa cells [1]; 390 nm (150 ms every 30 s)): 0.38 fold
mean fold growth (HeLa cells [1]; Dark): 0.29 fold
fold growth relative to cosolvent control (MTT) (HEK-293T cells; 5 nM, 390 nm, 0.35 s every 2 min): 1.29
fold growth relative to cosolvent control (MTT) (HEK-293T cells; 5 nM, 390 nm, 0.35s then 490 nm, 3 s (rescue) every 2 min): 1.28
fold growth relative to cosolvent control (MTT) (HEK-293T cells; 5 nM, 410 nm, 0.35 s every 2 min): 1.19
fold growth relative to cosolvent control (MTT) (HEK-293T cells; 5 nM, 410 nm, 0.35 s then 505 nm, 3 s (rescue) every 2 min): 1.20
fold growth relative to cosolvent control (MTT) (HEK-293T cells; 5 nM, 475 nm, 3 s every 2 min): 1.12
fold growth relative to cosolvent control (MTT) (HEK-293T cells; 5 nM, 490 nm, 3 s every 2 min): 1.43
fold growth relative to cosolvent control (MTT) (HEK-293T cells; 5 nM, 505 nm, 3 s every 2 min): 1.07
fold growth relative to cosolvent control (MTT) (HEK-293T cells; 5 nM, 525 nm, 3 s every 2 min): 0.86
fold growth relative to cosolvent control (MTT) (HEK-293T cells; 5 nM, Dark): 0.82
fold growth relative to cosolvent control (MTT) (HEK-293T cells; 15 nM, 390 nm, 0.35 s every 2 min): 0.88
fold growth relative to cosolvent control (MTT) (HEK-293T cells; 15 nM, 390 nm, 0.35s then 490 nm, 3 s (rescue) every 2 min): 0.82
fold growth relative to cosolvent control (MTT) (HEK-293T cells; 15 nM, 410 nm, 0.35 s every 2 min): 0.80
fold growth relative to cosolvent control (MTT) (HEK-293T cells; 15 nM, 410 nm, 0.35 s then 505 nm, 3 s (rescue) every 2 min): 0.81
fold growth relative to cosolvent control (MTT) (HEK-293T cells; 15 nM, 475 nm, 3 s every 2 min): 0.70
fold growth relative to cosolvent control (MTT) (HEK-293T cells; 15 nM, 490 nm, 3 s every 2 min): 0.97
fold growth relative to cosolvent control (MTT) (HEK-293T cells; 15 nM, 505 nm, 3 s every 2 min): 0.75
fold growth relative to cosolvent control (MTT) (HEK-293T cells; 15 nM, 525 nm, 3 s every 2 min): 0.81
fold growth relative to cosolvent control (MTT) (HEK-293T cells; 15 nM, Dark): 0.79
mean % G2/M phase (HEK-293; 390 nm (1 s every 15 min)): 70.1%
mean % G2/M phase (HEK-293; dark): 72.0%
mean % G2/M phase (HeLa [2]; 390 nm (1 s every 15 min)): 69.5%
mean % G2/M phase (HeLa [2]; dark): 69.0%
mean % G2/M phase (MDA-MB-231 cells; 390 nm (1 s every 15 min)): 50.9%
mean % G2/M phase (MDA-MB-231 cells; dark): 51.3%
mean % cells PI+ (HeLa [3]; 390 nm (1 s every 15 min)): 63.9%
mean % cells PI+ (HeLa [3]; dark): 62.5%
mean % cells PI+ (Jurkat cells [4]; 390 nm (350 ms every 5 min)): 5.7%
mean % cells PI+ (Jurkat cells [4]; dark): 8.0%
mean % cells PI+ (MDA-MB-231; 390 nm (1 s every 15 min)): 43.2%
mean % cells PI+ (MDA-MB-231; dark): 45.1%
mean % subG1 phase (HeLa cells [5]; 390 nm light (1 s pulses every 15 min)): 12.3%
mean % subG1 phase (HeLa cells [5]; dark): 11.5%
mean % subG1 phase (Jurkat cells [6]; 5 nM, 390 nm (350 ms pulses every 5 min)): 40.4%
mean % subG1 phase (Jurkat cells [6]; 5 nM, dark): 37.5%
mean % subG1 phase (Jurkat cells [6]; 15 nM, 390 nm (350 ms pulses every 5 min)): 91.5%
mean % subG1 phase (Jurkat cells [6]; 15 nM, dark): 89.7%

CCCCCCCOc1ccc(/N=N/c2ccc(CNN[C@H](C=O)CCCCN)cc2)cc1 [P1]
IC50 (tubulin): ~100 µM
